Laboratory results taken from patent US7692011B2, “8-hydroxy and 8-mercapto quinazolinones” (Prana Biotechnology Limited, priority 2002, dated 2010).
Where “and” joins values, the source holds several entries; their conditions need not be identical. Identical values can stand only once.

Assays:
[1] = system: Aβ from post mortem human AD brain; test: Assay 9 Human brain amyloid solubilisation assay; type: biochemical; design: key: (+): effective at solubilising plaques at more than 1 concentration relative to PBS; (−): not effective at solubilising plaques relative to PBS; details: relative to PBS
Description: Assay 9. Human Brain Amyloid Solubilisation Assay
This assay was performed in order to assess the ability of a test compound to mobilise Aβ from the insoluble to the soluble phase of an extract of tissue from post mortem human AD brain.
Up to 0.5 g of plaque-bearing cortex without meninges was homogenized using a DIAX 900 homogenizer (Heudolph and Co, Kelheim, Germany) or other suitable device for three 30-second periods at full speed in up to 2 ml of ice-cold phosphate-buffered saline, pH 7.4. To obtain the phosphate-buffered saline-extractable fraction, the homogenate was centrifuged at 100,000×g for 30 min and the supernatant removed. […]
Tris-Tricine polyacrylamide gel electrophoresis was performed by loading appropriately diluted samples on to 10% to 20% gradient gels (Novex, San Diego, Calif.) followed by transfer on to 0.2-μm nitrocellulose membrane (Bio-Rad, Hercules, Calif.). Aβ was detected by using monoclonal antibody W02, which detects residues 5 through 8, 17 (or another suitable antibody) in conjunction with horseradish peroxidase-conjugated rabbit anti-mouse IgG (Dako, Denmark), and visualized by using enhanced chemiluminescence (eg ECL; Amersham Life Science, Buckinghamshire, UK). […]
All samples were analysed several times, and gel loadings and dilutions were adjusted to fit within the quantifiable region of the standard curve. […]

[2] = Assay 16 Determination of mouse plasma levels of test compounds; type: in vivo; details: for Conc. in mouse plasma: oral 30 mg/kg
Excerpt: [formula] [formula] [formula] • CLtotal=total plasma clearance after IV administration • Vdβ=volume of distribution during the elimination phase after IV administration • BA=oral bioavailability • AUCIV=area under the plasma concentration versus time profile from time zero to infinity after IV administration • AUCoral=area under the plasma concentration versus time profile from time zero to infinity after oral administration • β=terminal elimination rate constant after IV administration Assay 16 Determination of Mouse Plasma Levels of Test Compounds PBT 1061
(§1) Oral administration of PBT 1061 at 30 mg/kg, as a suspension in Na-Carboxymethyl Cellulose (CMC) was administered by oral gavage to four mice. Two mice were sacrificed 30 minutes after administration and two mice were sacrificed 60 minutes after administration. Blood was obtained by cardiac puncture and plasma separated by centrifugation.
The concentration of PBT1061 was determined by LC/MS using the ZQ instrument. The mobile phase consisted of an acetonitrile (ACN)/water gradient (containing 0.05% Formic acid) and the column was a Phenomenex Polar-RP […] 80A (50×2 mm) column.
The mouse plasma samples were directly injected following a protein precipitation with ACN. The analytical method in plasma was linear in the range of 125 to 10,000 ng/ml (R^2=0.9992). Diazepam was used as the internal standard. Recovery of PBT1061 from plasma was ˜100%.
as §1, with “1063” for “1061”
The concentration of PBT1063 was determined by LC/MS using the single quadrupole instrument. The mobile phase consisted of an acetonitrile (ACN)/water gradient (containing 0.05% Formic acid) and the column was a Phenomenex C8 4 μm 80A (50×2 mm) column.
The supplied acute toxicity mouse plasma samples (delivered Feb. 9, 2003) were directly injected following a protein precipitation with ACN. Concentrations were determined by comparison to a calibration curve prepared in rat plasma. The analytical method in plasma was linear in the range of 312 to 10,000 ng/ml (R^2=0.9976). Diazepam was used as the internal standard. Recovery of PBT1063 from plasma was ˜42.9%.

| Conc. in mouse plasma ([2]; 30 min, individual mouse) | Conc. in mouse plasma ([2]; 60 min, individual mouse) | concentration at 30 min ([2]; mouse, plasma, po, 30 mg/kg, 30 min, individual mouse (Table 2), read-out: Conc. in mouse plasma) | concentration at 60 min ([2]; mouse, plasma, po, 30 mg/kg, 60 min, individual mouse (Table 2), read-out: Conc. in mouse plasma) | Conc. in mouse plasma ([2]; 30 min, individual mouse (Table 2)) | Conc. in mouse plasma ([2]; 60 min, individual mouse (Table 2)) | Compound | Assay 9 Brain amyloid solubilisation [1] |
| --- | --- | --- | --- | --- | --- | --- | --- |
|  |  |  |  |  |  | Oc1c(N2CCOCC2)ncc2cccnc12 [PBT-1053, 7-Morpholin-4-yl-[1,6]naphthyridin-8-ol] | (+) |
| 1826.61 ng/mL and 5475.88 ng/mL | 2417.55 ng/mL and 1115.24 ng/mL |  |  |  |  | O=c1c2c(Cl)cc(Cl)c(O)c2ncn1C1CC1 [PBT-1061, 5,7-Dichloro-3-cyclopropyl-8-hydroxy-3H-quinazolin-4-one] | (+) |
|  |  | 413 ng/mL | 331 ng/mL | 279.39 ng/mL | 439.49 ng/mL | O=c1c(-c2ccc(Cl)cc2)cnc2c(O)c(I)ccn12 [PBT-1063, 3-(4-Chlorophenyl)-9-hydroxy-8-iodopyrido[1,2-a]pyrimidin-4-one] |  |
